Test results taken from PubChem BioAssay (NCI).
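Dose response: 5 concentrations. Exposure: 48 h. Format: 96-well plates. Endpoint: linear interpolation; highest concentration if not reached. Here, GI50 denotes the concentration required for 50% inhibition of growth. At the TGI there is no net growth.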

Experiments:
Assay in all cases: growth of human tumour cells (NCI), 48 h
OVCAR-3 ovarian = system: OVCAR-3 ovarian
SK-MEL-28 melanoma = system: SK-MEL-28 melanoma
TK-10 renal = system: TK-10 renal
NCI-H226 lung = system: NCI-H226 lung
U251 CNS = system: U251 CNS
UO-31 renal = system: UO-31 renal
HT29 colon = system: HT29 colon
MCF7 breast = system: MCF7 breast
XF 498 CNS = system: XF 498 CNS
HOP-18 NSCLC = system: HOP-18 NSCLC
DLD-1 colon = system: DLD-1 colon

Compound | GI50 (OVCAR-3 ovarian) | TGI (OVCAR-3 ovarian) | GI50 (SK-MEL-28 melanoma) | TGI (SK-MEL-28 melanoma) | GI50 (TK-10 renal) | TGI (TK-10 renal) | GI50 (NCI-H226 lung) | TGI (NCI-H226 lung) | GI50 (U251 CNS) | TGI (U251 CNS) | GI50 (UO-31 renal) | TGI (UO-31 renal) | GI50 (HT29 colon) | TGI (HT29 colon) | GI50 (MCF7 breast) | TGI (MCF7 breast) | TGI (XF 498 CNS) | TGI (HOP-18 NSCLC) | TGI (DLD-1 colon)
Cc1ccc(S(=O)(=O)N(CCOc2ccc(/C(N)=N/Cl)cc2)CCOc2ccc(/C(N)=N\Cl)cc2)cc1 | 5990 nM | 31 µM | 25700 nM | > 100 µM | 40000 nM | > 100 µM | 59600 nM | > 100 µM | 3910 nM | 16.8 µM | > 100000 nM | > 100 µM | 9.8 µM | > 100 µM | 8080 nM | > 100 µM |  |  | 
O=C(N/N=C/c1ccccc1O)c1cccc([N+](=O)[O-])c1 |  | 6.73 µM |  | > 100 µM |  | > 84.6 µM |  |  |  | > 100 µM |  | 56.5 µM |  | > 100 µM |  |  | > 100 µM | > 100 µM | > 100 µM
COc1cccc(/C=N/NC(=O)c2ccccc2Nc2ccnc(C(F)(F)F)c2)c1O | 169 nM | 43.9 µM | 1480 nM | > 34.7 µM | 392 nM | > 92.6 µM | 571 nM | 36.5 µM | 449 nM | > 100 µM | 303 nM |  | 4.06 µM | > 100 µM | 313 nM | 29.5 µM |  |  | 
O=C1C=CC(=Nc2ccc3c(c2)C(Br)c2ccccc2-3)O1 (stereo not given) |  | > 100 µM |  | > 100 µM |  | > 100 µM |  |  |  | > 100 µM |  | > 100 µM |  |  |  |  |  |  | > 100 µM
COC(=O)C[C@H]1CCC2(OCCO2)[C@]1(C)C(=O)OC |  | > 100 µM |  | > 100 µM |  | > 100 µM |  |  |  | > 100 µM |  | > 100 µM |  | > 100 µM |  |  | > 100 µM |  | 
CCOC(=O)NC(=O)c1cn(C2OC(COC(=O)CCCCCCCCC(=O)OCC3OC(n4cc(C(=O)NC(=O)OCC)c(=O)[nH]c4=O)C(O)C3O)C(O)C2O)c(=O)[nH]c1=O (stereo not given) |  | > 100 µM |  | > 100 µM |  | > 100 µM |  | > 100 µM |  |  |  | > 100 µM |  | > 100 µM |  |  | > 100 µM | > 100 µM | > 100 µM
CCN(CC)c1c(C(=O)/C=C/c2ccccc2)c(-c2ccccc2)nn(C)c1=O |  |  |  | > 100 µM |  | > 100 µM |  | > 100 µM |  |  |  | > 100 µM |  | > 100 µM |  |  | > 100 µM |  | > 100 µM
C=C(CN1CCc2ccccc2C1)c1ccc(C(=O)Nc2cnccn2)cc1 | 22100 nM | 62.6 µM | 25400 nM | > 100 µM | 86300 nM | > 100 µM | > 100000 nM | > 100 µM | 16200 nM | > 100 µM | 24400 nM | > 100 µM | 24.1 µM | 59.5 µM | > 100000 nM | > 100 µM |  |  | 
O=C(Nc1ccc(N2CCNCC2)cc1)c1[nH]ncc1Nc1cc(Oc2ccccc2)ncn1 | 2180 nM | 6.26 µM | 2260 nM | 5.75 µM | 2070 nM | 4.67 µM | 1910 nM | 10.5 µM | 2120 nM | 10.5 µM | 1700 nM | 3.36 µM | 1.78 µM | 4.53 µM | 1280 nM | 4.07 µM |  |  | 
O=C(CN1CCOCC1)Nc1ccc(Cn2nnc3c2C(=O)c2nnn(Cc4ccc(NC(=O)CN5CCOCC5)cc4)c2C3=O)cc1 | 250 nM | 0.836 µM | 696 nM | 2.62 µM | 3250 nM | 24.4 µM | 1540 nM | 3.93 µM | 305 nM | 0.942 µM | 26000 nM | > 100 µM | 0.364 µM | 1.53 µM | 180 nM | 0.484 µM |  |  | 
CC1=C(CCCNS(C)(=O)=O)C2=C(C)C3(CC3)[C@@](C)(O)C(=O)C2=C1 | 890 nM | 4.7 µM | 1940 nM | 4.75 µM | 2610 nM | 8.52 µM | 1040 nM | 5.79 µM | 2320 nM | > 100 µM | 500 nM | 2.3 µM | 1.87 µM | > 100 µM | 2010 nM | > 100 µM |  |  | 
O=NN(Cc1ccc(Cl)cc1)C(C(=O)O)c1ccccc1 (stereo not given) |  | > 100 µM |  | > 100 µM |  | > 100 µM |  | > 100 µM |  | > 100 µM |  | > 100 µM |  | > 100 µM |  | > 100 µM |  |  | 
CCNCCNc1cc(-c2ccc(C(=O)OC)cc2)c(C#N)c2nc3ccccc3n12 | 1350 nM | 2.88 µM | 1720 nM | 3.45 µM | 1910 nM | 4.44 µM | 2020 nM | 8.39 µM | 1530 nM | 3.11 µM | 1530 nM | 2.95 µM | 1.6 µM | 4.47 µM | 1520 nM | > 100 µM |  |  | 
COc1ccc2cc1Oc1ccc(cc1)CC1c3cc(c(OC)cc3CCN1C)Oc1c3c(cc4c1C(C2)N(C)CC4)OCO3 (stereo not given) |  | 30 µM |  | 12.1 µM |  | 5.66 µM |  | 7.45 µM |  | 17.3 µM |  |  |  | 8.25 µM |  |  | 21.6 µM |  | 31.5 µM
CCOc1cccc(/C=N/NC(=O)c2ccccc2Nc2ccnc(C(F)(F)F)c2)c1O | 370 nM | 51.7 µM | 1370 nM | 98.3 µM | 567 nM | > 100 µM | 664 nM | 19.1 µM | 375 nM | > 100 µM | 303 nM |  | 3.79 µM | > 100 µM | 340 nM | 25.4 µM |  |  | 
CSc1ccc(C2=NN(C(C)=O)C(c3cc(C)cs3)C2)cc1 (stereo not given) | 23900 nM | > 100 µM | 37000 nM | > 100 µM | 26900 nM | > 100 µM | 21800 nM | > 100 µM | 32800 nM | > 100 µM | 19900 nM | > 100 µM | 24.9 µM | > 100 µM | 16200 nM | 46.3 µM |  |  | 
Nc1ccn(C2O[C@H](CO)[C@@H](O)[C@@H]2O)c(=O)n1 (stereo not given in full) |  | > 100 µM |  | > 100 µM |  | > 100 µM |  | > 100 µM |  | > 100 µM |  | > 100 µM |  | > 100 µM | 27100 nM | > 100 µM |  |  | 
